From US12404345B2, “Humanized antibodies against iRHOM2” (SCIRHOM GMBH, priority 2021, dated 2025) come the findings set out here.

This experiment has as its system PMA-induced release of endogenous IL-6R from human PBMCs from healthy donors. Kind of experiment: ELISA-based IL-6R release assay, PMA-induced, PBMCs from healthy donors. The format is cell-based. The conditions noted are these: PBMC, Batimastat 10 μM, PMA 25 ng/ml, 24 hours. The method, then: In the following study, ELISA-based IL-6R release assays were performed to analyze the inhibitory effects of the antibodies of the invention on PMA-induced release of endogenous IL-6R from primary human material obtained from healthy donors using peripheral blood mononuclear cells (PBMCs).
In brief, on day 1, Nunc black MaxiSorp® 96-well plates (Thermo Fisher Scientific, USA) were coated overnight with 100 μl per well of mouse anti-human IL-6R capture antibody (provided as part of the DuoSet ELISA kit) at 2 μg/ml TBS at 4° C. […]
Meanwhile, the 96-well plates were centrifuged to pellet cells. […] Using an infinite M1000 (Tecan Group, Switzerland) microplate reader, the fluorescence of each well was collected at an excitation wavelength of 435 nm and an emission wavelength of 555 nm.

For the compound `CNC(=O)[C@H](Cc1ccccc1)NC(=O)[C@H](CC(C)C)[C@H](CSc1cccs1)C(=O)NO` [Batimastat], the inhibition (commonly how much of the control response was suppressed) at 10 µM turned out to be 96.2%.
